Laboratory results as given in ChEMBL document CHEMBL1201862, “PubChem BioAssay data set” (2004).
Active and inactive are the calls of the source.

How the values were obtained:
Cytochrome P450 3A4 [1] = target: T1, Cytochrome P450 3A4 (Homo sapiens, UniProt P08684); conditions: Potency
Vero [2] = assay: cells; assay type: functional, Chlorocebus sabaeus; conditions: Chlorocebus sabaeus, Vero
[3] = DRD fibroblast viability loss – cell-based, non-viral oncogenic, luminescence, dose response (AID 1934); assay type: functional; conditions: Homo sapiens
BJ [4] = assay: BJ-TERT-LT-ST fibroblast viability loss – cell-based, RAS-independent, luminescence, dose response (AID 1935); assay type: functional; conditions: Homo sapiens;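 also: BJ fibroblasts immortalized with TERT plus LT and ST oncogenes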
[5] = test system: Streptococcus sp. 'group A'; assay: Streptococcus pyogenes SK(-)GAS viability under kanamycin – luminescence, BacTiterGlo, confirmation, counter-screen for streptokinase expression inhibitor project, dose response (AID 1900); assay type: functional, organism-based
[6] = Luminescence Cell-Based Dose Response HTS to Identify Inhibitors of 5'UTR Stem-Loop Driven Prion Protein mRNA Translation in H4 Neuroglioblastoma Cells. [Related pubchem assays: 1827 (Project Summary), 1813 (Primary HTS)]; assay type: functional
[7] = alpha-synuclein stem-loop luciferase translation blockers – H4 neuroglioma cells, luminescence, confirmation (AID 1988); assay type: functional, cell-based
BJ [8] = assay: growth inhibition of engineered Ras-driven BJ cells – cell-based, alamar blue fluorescence, cherrypicked samples, dose response (AID 2631); assay type: functional; conditions: Homo sapiens;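 also: confirmatory dose-response assay in RAS-dependent BJ fibroblasts engineered with TERT, LT and ST, with cytotoxicity read by fluorescence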
Streptococcus = assay: GAS UMAA2166 growth inhibition – luminescence, BacTiterGlo, counter-screen for streptokinase expression inhibitor project, dose response (AID 1915); assay type: functional, organism-based;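 also: potency for reduction of bacterial viability or growth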
BJ [9] = assay: BJ-TERT fibroblast viability loss – cell-based, RAS-independent, luminescence, dose response (AID 1933); assay type: functional; conditions: Homo sapiens
BJ [10] = assay: cells; assay type: functional, cell-based; conditions: Homo sapiens
[11] = luciferase reporter signal suppression in cells – H4 neuroglioma cells, luminescence, dose response (AID 1990); assay type: functional, cell-based
[12] = target: T2, Voltage-gated N-type calcium channel alpha-1B subunit/Amyloid beta A4 precursor protein-binding family A member 1 (Homo sapiens, UniProt Q00975+Q02410); assay type: protein assay
T2 sequence (Q00975 whole entry): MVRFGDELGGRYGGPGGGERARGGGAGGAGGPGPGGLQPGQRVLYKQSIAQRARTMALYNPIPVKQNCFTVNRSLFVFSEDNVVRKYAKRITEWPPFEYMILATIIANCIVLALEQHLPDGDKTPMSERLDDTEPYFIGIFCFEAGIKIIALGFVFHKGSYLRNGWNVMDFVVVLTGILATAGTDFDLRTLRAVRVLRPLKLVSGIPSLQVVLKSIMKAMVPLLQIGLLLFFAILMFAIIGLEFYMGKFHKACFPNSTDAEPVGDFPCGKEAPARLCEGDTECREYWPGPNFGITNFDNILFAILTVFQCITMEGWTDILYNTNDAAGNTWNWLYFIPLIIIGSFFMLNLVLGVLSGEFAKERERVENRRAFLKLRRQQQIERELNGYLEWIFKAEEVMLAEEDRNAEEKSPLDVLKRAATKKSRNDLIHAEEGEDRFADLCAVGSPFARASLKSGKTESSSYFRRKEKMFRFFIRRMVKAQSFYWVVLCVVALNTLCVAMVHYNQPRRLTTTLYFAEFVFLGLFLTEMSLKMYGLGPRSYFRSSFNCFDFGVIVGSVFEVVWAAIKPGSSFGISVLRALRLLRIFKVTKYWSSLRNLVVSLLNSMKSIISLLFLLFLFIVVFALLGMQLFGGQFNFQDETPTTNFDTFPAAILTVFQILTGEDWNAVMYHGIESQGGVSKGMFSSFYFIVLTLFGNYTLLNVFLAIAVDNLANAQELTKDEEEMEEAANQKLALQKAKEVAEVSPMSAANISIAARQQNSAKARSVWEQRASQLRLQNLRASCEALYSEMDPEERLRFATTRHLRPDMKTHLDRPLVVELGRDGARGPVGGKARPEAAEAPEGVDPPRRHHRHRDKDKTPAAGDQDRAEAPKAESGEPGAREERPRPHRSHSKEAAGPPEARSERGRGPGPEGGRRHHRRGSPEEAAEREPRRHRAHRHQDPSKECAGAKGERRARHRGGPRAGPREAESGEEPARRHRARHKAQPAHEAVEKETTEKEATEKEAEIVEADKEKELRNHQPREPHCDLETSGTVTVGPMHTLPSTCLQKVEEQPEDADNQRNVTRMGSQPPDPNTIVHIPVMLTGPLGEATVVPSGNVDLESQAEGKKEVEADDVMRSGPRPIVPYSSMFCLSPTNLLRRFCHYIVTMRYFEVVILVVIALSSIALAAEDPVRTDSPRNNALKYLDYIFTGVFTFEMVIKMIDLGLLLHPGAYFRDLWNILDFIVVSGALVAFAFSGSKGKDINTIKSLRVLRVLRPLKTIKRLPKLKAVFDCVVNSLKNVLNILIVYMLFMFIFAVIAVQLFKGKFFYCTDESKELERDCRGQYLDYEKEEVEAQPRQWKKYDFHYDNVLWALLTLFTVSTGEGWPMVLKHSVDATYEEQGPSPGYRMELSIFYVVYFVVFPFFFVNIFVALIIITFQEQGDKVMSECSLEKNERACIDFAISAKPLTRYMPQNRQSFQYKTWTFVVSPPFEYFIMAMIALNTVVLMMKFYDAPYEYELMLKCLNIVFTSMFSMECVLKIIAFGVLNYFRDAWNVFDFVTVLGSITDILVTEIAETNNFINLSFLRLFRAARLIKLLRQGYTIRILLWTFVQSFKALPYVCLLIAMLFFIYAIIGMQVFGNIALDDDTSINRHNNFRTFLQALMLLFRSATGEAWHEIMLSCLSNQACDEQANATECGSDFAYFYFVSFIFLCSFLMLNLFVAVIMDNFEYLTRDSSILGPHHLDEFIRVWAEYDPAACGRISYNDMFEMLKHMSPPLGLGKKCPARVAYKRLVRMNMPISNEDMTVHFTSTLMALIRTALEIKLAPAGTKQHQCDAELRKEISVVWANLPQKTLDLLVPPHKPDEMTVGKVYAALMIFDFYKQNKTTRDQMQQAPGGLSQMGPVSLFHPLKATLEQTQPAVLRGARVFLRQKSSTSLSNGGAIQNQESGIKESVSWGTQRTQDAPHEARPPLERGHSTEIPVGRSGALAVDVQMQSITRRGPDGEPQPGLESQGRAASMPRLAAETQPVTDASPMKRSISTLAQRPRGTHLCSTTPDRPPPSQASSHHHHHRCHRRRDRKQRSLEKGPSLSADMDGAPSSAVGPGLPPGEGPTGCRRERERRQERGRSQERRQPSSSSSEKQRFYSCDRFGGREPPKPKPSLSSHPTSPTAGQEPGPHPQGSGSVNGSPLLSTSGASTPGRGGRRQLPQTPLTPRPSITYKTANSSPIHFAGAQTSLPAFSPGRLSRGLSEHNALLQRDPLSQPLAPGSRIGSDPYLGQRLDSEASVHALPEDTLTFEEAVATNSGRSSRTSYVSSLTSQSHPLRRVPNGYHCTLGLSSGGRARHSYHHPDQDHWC
T2 sequence (Q02410 whole entry): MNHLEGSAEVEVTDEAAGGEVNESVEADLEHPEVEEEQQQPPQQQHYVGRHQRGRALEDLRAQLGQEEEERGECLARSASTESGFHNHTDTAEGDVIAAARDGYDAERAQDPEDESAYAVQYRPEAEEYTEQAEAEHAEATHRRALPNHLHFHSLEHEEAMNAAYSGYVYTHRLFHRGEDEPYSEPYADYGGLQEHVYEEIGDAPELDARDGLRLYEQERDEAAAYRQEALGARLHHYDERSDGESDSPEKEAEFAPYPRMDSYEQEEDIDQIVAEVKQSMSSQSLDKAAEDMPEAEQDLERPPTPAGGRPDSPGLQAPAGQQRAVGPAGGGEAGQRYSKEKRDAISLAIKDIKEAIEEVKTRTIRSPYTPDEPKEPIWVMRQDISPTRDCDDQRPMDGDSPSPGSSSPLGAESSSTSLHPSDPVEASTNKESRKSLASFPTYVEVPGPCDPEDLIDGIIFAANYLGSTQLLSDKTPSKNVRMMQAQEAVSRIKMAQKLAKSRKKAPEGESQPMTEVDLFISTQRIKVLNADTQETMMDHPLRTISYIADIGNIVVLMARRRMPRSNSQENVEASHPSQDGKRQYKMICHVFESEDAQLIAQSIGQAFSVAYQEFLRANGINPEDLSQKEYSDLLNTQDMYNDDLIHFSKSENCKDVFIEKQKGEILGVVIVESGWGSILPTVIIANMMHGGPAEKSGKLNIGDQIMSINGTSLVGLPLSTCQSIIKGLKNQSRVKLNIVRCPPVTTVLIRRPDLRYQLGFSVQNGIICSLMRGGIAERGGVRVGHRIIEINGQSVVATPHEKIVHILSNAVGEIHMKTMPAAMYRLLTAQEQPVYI

[13] = target: T2, Voltage-gated N-type calcium channel alpha-1B subunit/Amyloid beta A4 precursor protein-binding family A member 1; assay type: protein assay; remark: listed apart in the source
Caspase-6 = target: T3, Caspase-6 (Homo sapiens, UniProt P55212); assay: inhibition of CASP6 peptide cleavage – biochemical, VEID-R110 fluorescence, cherry-pick, dose response (AID 720632)
T3 sequence (P55212 whole entry): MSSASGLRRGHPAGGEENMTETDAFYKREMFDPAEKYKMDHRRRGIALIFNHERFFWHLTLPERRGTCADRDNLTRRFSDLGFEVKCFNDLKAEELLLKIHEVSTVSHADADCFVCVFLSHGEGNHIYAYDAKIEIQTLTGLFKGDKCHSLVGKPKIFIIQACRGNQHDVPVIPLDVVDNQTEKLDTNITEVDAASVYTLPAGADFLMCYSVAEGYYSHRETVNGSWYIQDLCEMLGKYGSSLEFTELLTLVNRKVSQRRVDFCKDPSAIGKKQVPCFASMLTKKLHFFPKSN

Large T antigen = Large T antigen (Simian virus 40, UniProt P03070); assay type: functional, Betapolyomavirus macacae;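 also: Confirmatory-stage PubChem screen for compounds that inhibit SV40 T antigen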
Cytochrome P450 2C9 = Cytochrome P450 2C9 (Homo sapiens, UniProt P11712)
Sequence of Cytochrome P450 2C9 (P11712 whole entry): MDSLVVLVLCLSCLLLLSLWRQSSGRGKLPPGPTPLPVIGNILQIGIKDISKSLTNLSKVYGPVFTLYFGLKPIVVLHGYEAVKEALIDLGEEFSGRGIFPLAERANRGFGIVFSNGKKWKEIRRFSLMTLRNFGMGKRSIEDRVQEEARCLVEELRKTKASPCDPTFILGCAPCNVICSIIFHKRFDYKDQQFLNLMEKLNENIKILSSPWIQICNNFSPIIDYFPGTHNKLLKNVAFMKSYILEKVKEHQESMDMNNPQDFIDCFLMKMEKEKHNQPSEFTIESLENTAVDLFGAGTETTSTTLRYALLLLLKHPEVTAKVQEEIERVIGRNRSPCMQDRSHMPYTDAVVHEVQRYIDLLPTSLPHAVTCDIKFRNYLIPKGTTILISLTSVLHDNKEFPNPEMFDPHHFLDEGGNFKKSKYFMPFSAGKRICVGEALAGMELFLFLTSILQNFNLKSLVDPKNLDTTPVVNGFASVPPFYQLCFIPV

Cytochrome P450 3A4 [14] = target: T1, Cytochrome P450 3A4
[15] = target: T4, Short transient receptor potential channel 4 (Mus musculus, UniProt Q9QUQ5); assay: block of DAMGO-driven TRPC4 calcium entry – cell-based, HEK293 TRPC4/mu-opioid, Fluo-4 calcium, dose response (AID 434942); assay type: functional;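 also: potency of inhibitors blocking the TRPC4 calcium response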
T4 sequence (Q9QUQ5 whole entry): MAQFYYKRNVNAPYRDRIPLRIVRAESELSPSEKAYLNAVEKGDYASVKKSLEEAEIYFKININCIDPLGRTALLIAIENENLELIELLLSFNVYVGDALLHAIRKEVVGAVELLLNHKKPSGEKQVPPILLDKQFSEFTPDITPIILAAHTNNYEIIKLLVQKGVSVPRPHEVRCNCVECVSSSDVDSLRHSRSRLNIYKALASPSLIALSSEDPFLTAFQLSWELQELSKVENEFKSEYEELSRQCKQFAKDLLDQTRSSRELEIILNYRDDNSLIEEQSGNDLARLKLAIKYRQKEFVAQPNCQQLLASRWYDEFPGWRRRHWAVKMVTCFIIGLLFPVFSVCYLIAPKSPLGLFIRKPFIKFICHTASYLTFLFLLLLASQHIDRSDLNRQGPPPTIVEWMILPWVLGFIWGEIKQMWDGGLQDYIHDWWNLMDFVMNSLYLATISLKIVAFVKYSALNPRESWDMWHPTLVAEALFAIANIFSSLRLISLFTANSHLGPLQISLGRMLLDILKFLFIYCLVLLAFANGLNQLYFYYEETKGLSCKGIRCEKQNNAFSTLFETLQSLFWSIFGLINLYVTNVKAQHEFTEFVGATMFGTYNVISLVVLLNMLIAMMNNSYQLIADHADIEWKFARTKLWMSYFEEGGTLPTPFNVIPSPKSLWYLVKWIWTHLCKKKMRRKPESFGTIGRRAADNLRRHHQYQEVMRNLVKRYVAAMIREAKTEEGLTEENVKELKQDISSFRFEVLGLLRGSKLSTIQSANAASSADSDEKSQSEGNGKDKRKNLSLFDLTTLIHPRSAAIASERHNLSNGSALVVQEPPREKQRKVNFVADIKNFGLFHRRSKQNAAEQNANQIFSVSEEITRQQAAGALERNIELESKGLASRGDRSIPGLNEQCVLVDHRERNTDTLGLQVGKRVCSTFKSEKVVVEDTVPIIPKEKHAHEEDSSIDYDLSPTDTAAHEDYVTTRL

Vero [16] = assay: cells; assay type: functional, cell-based; conditions: Chlorocebus sabaeus
[17] = target: Induced myeloid leukemia cell differentiation protein Mcl-1 (Homo sapiens, UniProt Q07820); assay type: functional
Cytochrome P450 2C19 = Cytochrome P450 2C19 (Homo sapiens, UniProt P33261); assay: Cytochrome panel assay with activity outcomes. Panel member name: p450-cyp2c19 Compounds with AC50 equal or less than 10 uM are considered active; assay type: functional
Nonstructural protein 1 = Nonstructural protein 1 (Influenza A virus, UniProt Q194T2); assay type: functional, Influenza A virus (A/California/07/2009(H1N1))
Sequence of Nonstructural protein 1 (Q194T2 whole entry): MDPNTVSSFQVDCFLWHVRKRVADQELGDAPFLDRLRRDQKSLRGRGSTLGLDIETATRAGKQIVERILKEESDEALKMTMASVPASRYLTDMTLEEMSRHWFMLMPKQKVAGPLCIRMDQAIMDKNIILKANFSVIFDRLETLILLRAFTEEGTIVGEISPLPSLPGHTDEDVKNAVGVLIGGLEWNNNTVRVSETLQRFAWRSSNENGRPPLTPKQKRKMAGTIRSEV

[18] = Luminescence Cell-Based Dose Retest to Confirm Inhibitors of Cancer Stem Cells. [Related pubchem assays (depositor defined):AID2717, AID2721]; assay type: functional; conditions: Homo sapiens
Cytochrome P450 2D6 = Cytochrome P450 2D6 (Homo sapiens, UniProt P10635);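 also: CYP2D6 member of a cytochrome P450 panel assay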
Sequence of Cytochrome P450 2D6 (P10635 whole entry): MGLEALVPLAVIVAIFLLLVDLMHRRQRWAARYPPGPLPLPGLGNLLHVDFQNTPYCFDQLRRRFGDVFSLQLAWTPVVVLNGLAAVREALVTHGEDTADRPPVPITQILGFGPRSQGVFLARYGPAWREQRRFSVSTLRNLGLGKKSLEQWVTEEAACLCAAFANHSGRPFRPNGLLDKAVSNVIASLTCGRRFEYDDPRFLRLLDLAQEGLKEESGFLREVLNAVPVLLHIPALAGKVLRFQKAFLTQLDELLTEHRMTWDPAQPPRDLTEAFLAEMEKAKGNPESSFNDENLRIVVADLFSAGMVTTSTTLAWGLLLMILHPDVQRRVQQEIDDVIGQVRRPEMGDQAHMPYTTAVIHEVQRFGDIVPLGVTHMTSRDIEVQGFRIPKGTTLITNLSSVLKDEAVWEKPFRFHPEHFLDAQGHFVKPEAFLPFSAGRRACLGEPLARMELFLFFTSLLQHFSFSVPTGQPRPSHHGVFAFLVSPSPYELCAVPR

Cytochrome P450 3A4 [19] = target: T1, Cytochrome P450 3A4; remark: listed apart in the source

T1 sequence (P08684 whole entry): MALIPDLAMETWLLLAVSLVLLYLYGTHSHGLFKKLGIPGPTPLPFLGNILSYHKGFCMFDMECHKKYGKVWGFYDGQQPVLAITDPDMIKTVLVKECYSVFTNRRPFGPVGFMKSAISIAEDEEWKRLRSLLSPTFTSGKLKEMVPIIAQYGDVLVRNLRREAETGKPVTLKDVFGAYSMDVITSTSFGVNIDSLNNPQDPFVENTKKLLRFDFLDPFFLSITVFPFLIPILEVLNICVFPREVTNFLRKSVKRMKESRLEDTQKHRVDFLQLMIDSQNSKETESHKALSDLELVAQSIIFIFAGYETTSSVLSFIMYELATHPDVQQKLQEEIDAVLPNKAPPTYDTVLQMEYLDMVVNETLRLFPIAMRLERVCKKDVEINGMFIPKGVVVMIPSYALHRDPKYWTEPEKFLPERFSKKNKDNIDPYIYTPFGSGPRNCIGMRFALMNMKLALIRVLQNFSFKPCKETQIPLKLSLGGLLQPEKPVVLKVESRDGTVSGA

Which AC50 (Cytochrome P450 3A4 [1]) does the source give for COc1c(CC(=O)c2cc3c(cc2O)OC(C)(C)C(O)C3)ccc2c1C=CC(C)(C)O2 (configuration not stated) [DIHYDROMUNDULETONE] here?
The AC50 was 25.1 µM (inconclusive).

Which CC50 (Vero [2]) does the source give for COC1CC(C)C(OC)c2cc(O)cc(c2O)NC(=O)C(C)=CC=CC(C)C(OC(N)=O)C(C)=CC(C)C1OC (configuration not stated) here?
The CC50 was 12.6 µM (active).

Which results are given for CC1(C)N=C(N)N=C(N)N1c1ccccc1?
EC50 [3]: 14.9 µM (active); EC50 (BJ [4]): > 150 µM (not active); EC50 [5]: 0.357 µM (active); EC50 [6]: 15.6 µM (active); EC50 [7]: 1.62 µM (active); EC50 (BJ [8]): > 133 µM (inactive); EC50 (Streptococcus): 1.3 µM (active); EC50 (BJ [9]): > 150 µM (not active); EC50 (BJ [10]): 8.15 µM (active); EC50 [11]: 6.38 µM (active)

For CCC1=C2CC[C@H]3C(=O)NC(=O)[C@H]3[C@H]2[C@@]2(Cc3ccccc3)/C(=N/CC(=O)OC)OC(=O)N2C1=O, which AC50 (Cytochrome P450 3A4 [1]) is on record?
The AC50 was 15.8 µM (inconclusive).

With COc1cccc(N2C(=O)NC(=O)/C(=C\c3ccc([N+](=O)[O-])s3)C2=O)c1 as the compound, how does the IC50 [12] read?
Its IC50 is 6.66 µM (active).

What about the IC50 [13] of the same compound?
The IC50 was 13.5 µM (active).

And the AC50 (Caspase-6)?
Its AC50 is 43 µM (active).

And the IC50 (Large T antigen)?
The IC50 was 32.4 µM (active).

Which results are given for Cc1cccn2c(=O)c(/C=N/O)c(Nc3ccccc3F)nc12?
IC50 [12]: > 50 µM (inactive); IC50 [13]: 11.4 µM (active)

With CCOC(=O)c1sc(=S)n(-c2cccc(C(F)(F)F)c2)c1SC as the compound, how does the AC50 (Cytochrome P450 2C9) read?
The AC50 was 1.58 µM (inconclusive).

And the AC50 (Cytochrome P450 3A4 [14])?
Its AC50 is “inconclusive”.

With C=CCn1cnc2scc(-c3ccc(CC)cc3)c2c1=O as the compound, how does the EC50 [15] read?
The EC50 was 5.96 µM (active).

Which IC50 (Vero [16]) does the source give for O=C(Cc1coc2ccc3ccccc3c12)Nc1nnc(C2CC2)s1 here?
Its IC50 is 21.7 µM (active).

What about the CC50 (Vero [2]) of the same compound?
Its CC50 is > 25 µM (active).

For Cn1c(=O)c(-c2ccc(Cl)cc2)nc2cnc(Oc3ccccc3)nc21, which AC50 (Cytochrome P450 3A4 [14]) is on record?
The AC50 was “inconclusive”.

With Cn1cc(CNCC2CCCO2)c(-c2ccc(Oc3ccccc3)cc2)n1 (configuration not stated) as the compound, how does the EC50 [15] read?
The EC50 was 3.35 µM (active).

Which IC50 [17] does the source give for Oc1c(Cl)cc(Cl)cc1/C=C/c1ccc2cccc(O)c2n1 here?
The IC50 was 6.97 µM (not active).

For O=C(CC1C(=O)NCCN1C(=O)Nc1ccc(C(F)(F)F)cc1)Nc1ccc(F)cc1 (configuration not stated), which CC50 (Vero [2]) is on record?
Its CC50 is > 25 µM (active).

With O=C(O)/C=C/C(=O)Nc1ccc(F)cc1F as the compound, how does the AC50 (Cytochrome P450 2C19; read-out: AC50) read?
The AC50 was 39.8 µM (inconclusive).

And the AC50 (Cytochrome P450 3A4 [14])?
Its AC50 is “inconclusive”.

For CCN(CC)CCCNC(=O)c1cc(-c2ccccc2)c(N2CCCCC2)s1, which EC50 [3] is on record?
Its EC50 is 10.1 µM (active).

And the EC50 (BJ [4])?
Its EC50 is 12.8 µM (inconclusive).

What about the IC50 (Nonstructural protein 1) of the same compound?
The IC50 was 88.3 µM (active).

And the EC50 (BJ [8])?
Its EC50 is > 133 µM (inactive).

What about the EC50 (BJ [9]) of the same compound?
Its EC50 is 9.67 µM (active).

And the EC50 (BJ [10])?
The EC50 was 28.8 µM (active).

And the AC50 [18]?
Its AC50 is 3.79 µM (active).

Which EC50 [3] does the source give for COc1cc([C@@H]2c3cc4c(cc3[C@@H](NC3CCN(Cc5ccccc5)CC3)[C@H]3COC(=O)[C@H]23)OCO4)cc(OC)c1O here?
Its EC50 is 2.38 µM (active).

What about the EC50 (BJ [4]) of the same compound?
Its EC50 is 0.297 µM (active).

And the EC50 (BJ [8])?
Its EC50 is 0.554 µM (active).

What about the EC50 (BJ [9]) of the same compound?
The EC50 was 1.33 µM (active).

With CC(=O)N1CC=CC1(C)C(=O)O (configuration not stated) as the compound, how does the AC50 (Cytochrome P450 3A4 [1]) read?
The AC50 was 20 µM (inconclusive).

Which AC50 (Cytochrome P450 3A4 [1]) does the source give for CCCCNC(=O)C(c1ccc(OCC(=O)OC)c(C(=O)OC)c1)N(CCOC)C(=O)CCCCCN1C(=O)NC(c2ccc(-c3ccccc3)cc2)C(C(=O)OCc2ccccc2)=C1C (configuration not stated) here?
Its AC50 is 3.16 µM (inconclusive).

With CCCCc1nc(SCCOC)c2c(=O)n(C)c(=O)n(C)c2n1 as the compound, how does the EC50 [15] read?
The EC50 was 1.5 µM (active).

Which AC50 (Cytochrome P450 2C19; read-out: AC50) does the source give for O=C(c1csnn1)N1CCC2(CC1)CN(C(c1ccccc1)c1ccccc1)C2 here?
Its AC50 is 0.00631 µM (inconclusive).

And the AC50 (Cytochrome P450 2D6)?
Its AC50 is 12.6 µM (inconclusive).

What about the AC50 (Cytochrome P450 2C9) of the same compound?
The AC50 was 15.8 µM (inconclusive).

And the AC50 (Cytochrome P450 3A4 [14])?
The AC50 was “inconclusive”.

Which EC50 [15] does the source give for Cc1cc(N2CCCCCC2)nc2ccccc12 here?
The EC50 was 1.33 µM (active).

What does the source list for Cc1cccnc1NC(=O)C12CCC(C)(C(=O)O1)C2(C)C (configuration not stated)?
AC50 (Cytochrome P450 2C19): inconclusive; AC50 (Cytochrome P450 3A4 [14]): inconclusive

With COc1ccc(C(=O)N2CCC3(CC2)CCN(C(c2ccccc2)c2ccccc2)CC3)cc1 as the compound, how does the AC50 (Cytochrome P450 2D6) read?
Its AC50 is 12.6 µM (inconclusive).

What about the AC50 (Cytochrome P450 2C9) of the same compound?
Its AC50 is 39.8 µM (inconclusive).

And the AC50 (Cytochrome P450 3A4 [14])?
Its AC50 is “inconclusive”.

Which AC50 (Cytochrome P450 3A4 [19]) does the source give for N#Cc1c(N2CCCCC2)nc(N)c2c(N)nc3c(c12)CC(c1ccccc1)O3 (configuration not stated) here?
The AC50 was 1 µM (inconclusive).

And the EC50 [15]?
Its EC50 is 2.99 µM (active).

And the AC50 (Cytochrome P450 2D6)?
The AC50 was 25.1 µM (inconclusive).
